Reference: ChEMBL document CHEMBL3301448, “MMV Malaria Box screening against Toxoplasma gondii and Entamoeba histolytica”

Legend:
Entamoeba histolytica = assay: MMV: Primary screening was performed with each compound at a 30 uM final concentration and in triplicate in sealed 96-well polystyrene microtiter plates. Parasite inocula (100 ul) comprising 20000 parasites/ml were added to each well and grown at 37 degrees C in a humidified atmosphere of 5% CO2 for 72 h. Positive controls consisted of metronidazole at 1 mg/ml. The growth of E. histolytica trophozoites in each well was determined microscopically by measuring the diameters of the confluent cells in drug-containing wells relative to those in the nega- tive-control wells.; format: functional, organism-based
Toxoplasma gondii = assay: MMV: A total of 100ul of inoculum was added to each well (parasite/cell ratio, ~10:1; final volume, 200 ul). Six hours after inoculation, nonadherent parasites were removed, and 100 ul of complete DMEM (1% penicillin-streptomycin, 3% FBS) supplemented with inhibitors at different concentrations (2-fold serial dilutions starting from 30 uM) was added to all except the negative-control wells. Positive controls, consisting of pyrimethamine (PYR) and sulfadiazine (SDZ) (20-mg/ml stocks in DMSO), were tested at a 2mg/ml final concentration. Each test was performed in triplicate.; format: functional, organism-based; settings: 6 h

Row | Structure (SMILES) | IC50 (Entamoeba histolytica) [µM] | IC50 (Toxoplasma gondii) [µM]
1 | CSc1ccccc1C(=O)Nc1nc(-c2ccccn2)cs1 | > 30 | > 30
2 | COc1nc(Nc2ccc(C(C)C)cc2)nc(OC)n1 | > 30 | > 30
3 | c1ccc2c(NCCCCCCNc3c4c(nc5ccccc35)CCCC4)c3c(nc2c1)CCCC3 | > 30 | > 30
4 | CCCCc1c(CCC)c(=N)c2ccccc2n1C | > 30 | > 30
5 | O=C(Nc1ccc(-c2nc3cc(NC(=O)c4ccc(Cl)cc4)ccc3[nH]2)cc1)c1ccc(Cl)cc1 | > 30 | > 30
6 | CC1CC(C)CN(C(=O)c2ccc(Cl)cc2Cl)C1 (stereo not given) | > 30 | > 30
7 | Cc1ccc(-c2cc3c(SCC(=O)Nc4cc(C(F)(F)F)ccc4Cl)nccn3n2)cc1 | > 30 | > 30
8 | CCOc1ccc(-c2nonc2NC(=O)c2cccc(C)c2)cc1OCC | > 30 | > 30
9 | O=C(CCc1ccccc1)c1ccccc1OCC(O)CN1CCCCC1 (stereo not given) | > 30 | > 30
10 | N=c1c2ccccc2nnn1-c1cccc(C(F)(F)F)c1 | > 30 | > 30
11 | CC(=O)NCCc1nc2ccccc2n1Cc1ccc(C(C)C)cc1 | > 30 | > 30
12 | CC(C)(C)c1ccc2c(c1)CN(Cc1ccc(Cl)cc1)CO2 | > 30 | 20.4
13 | O=C1CC(O)(C(F)(F)C(F)(F)F)Oc2ccccc21 (stereo not given) | > 30 | > 30
14 | Cc1ccc(OCCCCCCNCCO)c(C)c1 | > 30 | > 30
15 | COc1cc(C(=O)Nc2ccc(-c3nc4ccccc4[nH]3)cc2)cc(OC)c1OC | > 30 | > 30
16 | O=C(Cc1ccccc1)NC(c1ccc(Cl)cc1)c1c(O)ccc2ccccc12 (stereo not given) | > 30 | > 30
17 | Nc1ccc(-c2nc3cc(Oc4ccc(Oc5ccc6[nH]c(-c7ccc(N)cc7)nc6c5)cc4)ccc3[nH]2)cc1 | > 30 | > 30
18 | C=C(C)CCC(C)N1CCC(N2CCC(C(=O)NCCc3ccccc3)CC2)CC1 (stereo not given) | > 30 | 27.1
19 | Oc1ccccc1CN1CCC2(CCCN(Cc3ccccc3F)C2)C1 (stereo not given) | > 30 | > 30
20 | COc1ccc(C(=O)NC(c2ccccc2Cl)c2cc(Cl)c3cccnc3c2O)cc1 (stereo not given) | > 30 | > 30
21 | Oc1c(C(Nc2ccccn2)c2cccc(Oc3ccccc3)c2)ccc2cccnc12 (stereo not given) | > 30 | > 30
22 | OC(Cn1nnc2ccccc21)Cn1c2ccc(Br)cc2c2cc(Br)ccc21 (stereo not given) | > 30 | > 30

Row | Structure (SMILES) | IC50 (Entamoeba histolytica) [µM] | IC50 (Toxoplasma gondii) [µM]
23 | CCCC(c1nnnn1C1CCCCC1)N1CCN(C(=O)c2ccco2)CC1 (stereo not given) | > 30 | > 30
24 | COc1cccc(C2(C)Nc3ccccc3-c3nc4ccccc4n32)c1 (stereo not given) | > 30 | > 30
25 | COc1ccc(C2NCCc3c2[nH]c2ccccc32)cc1CN1CCN(c2ccc(F)cc2)CC1 (stereo not given) | > 30 | > 30
26 | COc1ccc(-c2cn3c(C(=O)Nc4ccccc4Cl)c(-c4ccccc4)c4c3n2CCCC4)cc1 | > 30 | > 30
27 | CCCCC(O)(c1ccc(Cl)cc1)C(CN1CCOCC1)c1ccc(Cl)cc1 (stereo not given) | > 30 | > 30
28 | CC(=O)c1ccc(NC(=O)CSc2nc(-c3ccccc3Cl)ns2)cc1 | > 30 | 14.9
29 | COc1ccc(CNC(=O)c2cc3c(=O)n4ccccc4nc3n(CCc3ccccc3)c2=N)cc1 | > 30 | > 30
30 | CCOC(=O)c1cn(CC)c2cc(N(C)CCc3ccc(OC)c(OC)c3)c(F)cc2c1=O | > 30 | > 30
31 | CCOC(=O)C1=C(C)N=c2sc(=Cc3cc(Cl)ccc3O)c(=O)n2C1c1ccc(OC)cc1 (stereo not given) | > 30 | 24.9
32 | COc1cccc(C(=O)Nc2ccc(-c3nc4ccccc4[nH]3)cc2)c1 | > 30 | > 30
33 | CCCCCCC(O)(c1ccc(F)cc1)C(CN1CCOCC1)c1ccccc1 (stereo not given) | > 30 | > 30
34 | CCn1c(SCC(=O)Nc2cc(C(F)(F)F)ccc2Cl)nc2ccccc2c1=O | > 30 | > 30
35 | Cc1sc2ncnc(Sc3nc4ccccc4[nH]3)c2c1C | > 30 | 13.9
36 | OC1=C2C(=Nc3ccccc3SC2c2ccccc2)c2ccccc21 (stereo not given) | > 30 | > 30
37 | COc1cccc(C(=O)NC(c2ccc(C)cc2)c2cc(Cl)c3cccnc3c2O)c1 (stereo not given) | > 30 | > 30
38 | Cc1cc(NC(=O)c2cccc(C(F)(F)F)c2)n(-c2nc(-c3ccc4c(c3)OCO4)cs2)n1 | > 30 | > 30
39 | O=C1c2ccccc2-c2nnc(-c3ccc(Br)cc3)cc21 | > 30 | > 30
40 | Cc1ccc(S(=O)(=O)c2c(COC(=O)c3cccc(C)c3)c(-c3ccccc3)nn2C)cc1 | > 30 | > 30
41 | CCOC(=O)c1cnc2c(C)cccc2c1Nc1ccc(C(C)=O)cc1 | > 30 | > 30
42 | c1ccc2cc3c(Nc4ccc(N5CCOCC5)cc4)ccnc3cc2c1 | 15.6 | > 30
43 | CCN1CCCC1CNc1[nH]cnc2c3cc(Cl)ccc3nc1-2 (stereo not given) | > 30 | > 30
44 | Cc1ccnc(NC(c2cccc(OCc3ccccc3)c2)c2ccc3cccnc3c2O)c1 (stereo not given) | > 30 | > 30

Row | Structure (SMILES) | IC50 (Entamoeba histolytica) [µM] | IC50 (Toxoplasma gondii) [µM]
45 | CC(C)CCNCC(O)Cn1c2ccccc2c2ccccc21 (stereo not given) | > 30 | > 30
46 | CCC(O)c1ccc(Br)cc1NC(=O)c1cccc(Cl)c1 (stereo not given) | > 30 | > 30
47 | CCOc1ccc(Nc2ccnc3cc(Cl)ccc23)cc1 | > 30 | > 30
48 | COc1ccc(C=C2SC(Nc3ccc(F)cc3)=NC2=O)c(OC)c1 | > 30 | > 30
49 | CN(C)c1ccc(C=Cc2nc(=O)c3ccccc3o2)cc1 | > 30 | > 30
50 | CNCCCNc1ccnc2cc(Cl)ccc12 | > 30 | > 30
51 | O=C(NCC1Cc2cccc(-c3ccncc3)c2O1)c1csc2c1CCCC2 (stereo not given) | > 30 | > 30
52 | CC1CCCCN1CCCNC(=O)c1ccc2c(c1)sc1nc(-c3ccc(F)cc3)cn12 (stereo not given) | > 30 | > 30
53 | CC(C)c1ccc(CNCC(O)c2ccccc2)cc1 (stereo not given) | > 30 | 18.1
54 | O=C(CSc1ccc2nnc(-c3cccc(F)c3)n2n1)Nc1ccc2c(c1)OCO2 | > 30 | > 30
55 | Cc1cccc(-n2ncc3c(O)nc(-n4nc(C)cc4NC(=O)c4cc5ccccc5o4)nc32)c1 | > 30 | > 30
56 | O=C(NC1CCCCC1)C(c1cccs1)N(CCc1ccccc1)C(=O)c1ccco1 (stereo not given) | > 30 | > 30
57 | Oc1ccc(Cl)cc1CNc1nc2ccccc2[nH]1 | > 30 | 26.8
58 | COC(=O)c1ccc(C2C3=C(O)CC(c4ccc(F)cc4)CC3=Nc3ccccc3N2C(=O)c2ccccc2)cc1 (stereo not given) | > 30 | > 30
59 | COc1ccc(N2CCN(C(CNC(=O)CC(C)(C)C)c3ccc4c(c3)OCO4)CC2)cc1 (stereo not given) | > 30 | > 30
60 | COc1ccccc1CNC(=O)CCn1c(=O)[nH]c2ccccc2c1=O | > 30 | > 30
61 | c1ccc(-c2ccc(-c3nc4ccccc4[nH]3)cc2)cc1 | > 30 | > 30
62 | Cn1c(=O)c2cc(C(=O)NCCCN3CCCCCC3)sc2c2ccccc21 | > 30 | > 30
63 | Cc1c(C)n(CC(O)CNC2CCCCC2C)c2ccccc12 (stereo not given) | > 30 | > 30
64 | O=C(CCl)NCCOc1ccc(Cl)cc1Cl | > 30 | > 30
65 | Cc1cc(NC(=O)C2c3ccccc3C(=O)N(CC(C)C)C2c2cccs2)no1 (stereo not given) | > 30 | 20.9
66 | CCOC(=O)c1cnc2ccc(OC)cc2c1Nc1ccc(N2CCN(C)CC2)cc1 | > 30 | > 30

Row | Structure (SMILES) | IC50 (Entamoeba histolytica) [µM] | IC50 (Toxoplasma gondii) [µM]
67 | CCOc1ccc(-n2cc(-c3ccccc3)c3c(SCc4cc(C)ccc4C)ncnc32)cc1 | > 30 | 11.2
68 | N=c1n(CCN2CCCCC2)c2ccccc2n1CC(O)c1cccc(Br)c1 (stereo not given) | > 30 | > 30
69 | CN(C)CCCNCc1ccc(-c2ccc(F)c(Cl)c2)o1 | > 30 | > 30
70 | COc1ccc2c(c1OC)C(=O)N1c3ccccc3N=C(c3ccc(C)cc3)CC21 (stereo not given) | > 30 | > 30
71 | COc1cccc(O)c1CN1CCC2(CCCN(Cc3ccc(F)cc3)C2)C1 (stereo not given) | > 30 | > 30
72 | COc1ccc(CCN2CCC(CN(C)Cc3cnn(-c4ccccc4)c3)CC2)cc1 | > 30 | > 30
73 | Cc1ccc(C)c(-c2csc(Nc3ccc(C)c(C)c3)n2)c1 | > 30 | > 30
74 | Cc1cc(C=C2SC(=Nc3ccccc3)N(C3CCCC3)C2=O)c(C)n1-c1ccc(Cl)cc1 | > 30 | > 30
75 | COc1ccc(-c2nc(N3CCN(C(=O)C4CCCCC4)CC3)c3c4c(sc3n2)CCCC4)cc1 | > 30 | > 30
76 | CCOC(=O)c1cnc2ccc(CC)cc2c1O | > 30 | > 30
77 | COc1cccc(C=Cc2nc(=O)c3ccccc3o2)c1OC | > 30 | > 30
78 | CCN(CC)c1cc(C)c2cc(NC(=O)c3cccc(OC)c3)ccc2n1 | > 30 | > 30
79 | COc1ccc(CCn2c(=N)c(C(=O)NCc3cccnc3)cc3c(=O)n4cccc(C)c4nc32)cc1 | > 30 | > 30
80 | CCn1c2c(c(=N)c3c1CCC3)CCCC2 | > 30 | > 30
81 | Cc1cc(Nc2ccc3ccccc3c2)n2ncnc2n1 | > 30 | > 30
82 | O=C(c1ccccc1F)N(Cc1ccc(Cl)cc1)c1ccccn1 | > 30 | > 30
83 | CCOC(=O)c1c(C)n(-c2ccccc2)c2ccc(OC(=O)c3cc(OC)c(OC)c(OC)c3)cc12 | > 30 | > 30
84 | CCCCNCC(O)(c1ccc(Cl)cc1)c1ccc(Cl)cc1 | > 30 | > 30
85 | O=C(NC1CCN(Cc2ccccc2)CC1)c1cc(C(=O)NC2CCN(Cc3ccccc3)CC2)cc(C(=O)NC2CCN(Cc3ccccc3)CC2)c1 | > 30 | > 30
